Values joined by “and” are separate entries in the source; they are usually repeats but may differ in a detail not shown here. Equal values may be shown once. “Also recorded” adds a separate entry of the source.
System: ROS1-positive advanced NSCLC
Assay: Phase I clinical trial, indication expansion phase: efficacy in group B (ROS1-positive, prior crizotinib)
Assay type: in vivo, human
Method: The anti-tumor efficacy is evaluated according to RECIST version 1.1. For patients initially evaluated as having a complete response (CR) or partial response (PR), efficacy should be confirmed at least 4 weeks later. In the patients with asymptomatic central nervous system (CNS) metastases, in addition to evaluating 5 extracranial target lesions, up to 5 intracranial target lesions will also be evaluated. The specific indicators are as follows:
"ORR" includes CR and PR, and is defined as the proportion of patients who achieve complete response or partial response.
"IC-ORR" includes CR or PR for confirmed intracranial lesions, and is defined as the proportion of the patients with complete response or partial response of intracranial lesions among the patients with intracranial lesions.
"DCR" is defined as the proportion of the patients who achieve response (PR+CR) and stable disease (SD) after a treatment.
"IC-DCR" is defined as the proportion of the patients who achieve intracranial response (PR+CR), intracranial stable disease (SD), and […] after a treatment among the patients with intracranial lesions.
"DOR" is defined as the time from the first assessment of CR or PR to progressive disease or death, and is only applicable to the patients who achieve response.
"IC-DOR" is defined as the time from the first assessment of intracranial CR or intracranial PR to progressive disease or death, and is only applicable to the patients whose intracranial lesions achieve response.
"TTR" is defined as the time from patient enrollment (first dose of investigational drug) to tumor response (CR/PR), based on the patients with objective response.
"IC-TTR" is defined as the time from patient enrollment (first dose of investigational drug) to intracranial tumor response (IC-CR/PR), based on the patients with intracranial objective response.
"PFS" is defined as the time from the first administration of the investigational drug to progressive disease (PD) or death from any cause, whichever comes first.
In the indication expansion phase, an appropriate administration regimen was determined based on the safety, tolerability, PK and efficacy data from the dose escalation phase and dose expansion phase, and the expansion was performed within the target population.
The result of a pregnancy test conducted ≤7 days prior to the first administration of the investigational drug must be negative for the women of childbearing age.

[1] = intracranial measurable lesions, Group B (n=6)

## [2H]C([2H])([2H])n1nc2c(c1C#N)-c1cnc(N)c(c1)O[C@H](C)c1cc(F)ccc1C(=O)N(C)C2 [compound A, (10R)-7-amino-12-fluoro-2-(methyl-d3)-10,16-dimethyl-15-oxo-10,15,16,17-tetrahydro-2H-8,4-(metheno)pyrazolo[4,3-h][2,5,11]benzoxadiazacyclotetradecine-3-carbonitrile]
24 ROS1-positive NSCLC patients previously treated with crizotinib
  ORR: 29.2%
ROS1-positive, six patients with measurable CNS lesions at baseline
  intracranial ORR: 50.0%
Group B, FAS, as of April 17, 2024
  median PFS: 8.36 months
[1]
  BOR CR: 0 n (%)
  BOR NE: 0 n (%)
  BOR PD: 1 (16.7) n (%)
  BOR PR: 3 n (%) and 3 (50.0) n (%)
  BOR SD: 2 (33.3) n (%)
  Confirmed ORR (95% CI): 3 (50.0) (11.8, 88.2) n (%)
  DCR (95% CI): 5 (83.3) (35.9, 99.6) n (%)
  Median DOR (95% CI): not reached
  Median TTR (range): 1.41 months and 1.41 (1.35, 1.41) months
systemic, Group B (n=24)
  BOR CR: 0 n (%)
  BOR NE: 0 n (%)
  BOR PD: 7 (29.2) n (%)
  BOR PR: 7 (29.2) n (%)
  BOR SD: 10 (41.7) n (%)
  Confirmed ORR (95% CI): 7 (29.2) (12.6,51.1) n (%)
  DCR (95% CI): 17 (70.8) (48.9, 87.4) n (%)
  Median DOR (95% CI): not reached; also recorded: NR (4.370, -)
  Median TTR (range): 1.41 months and 1.41 (1.31, 7.03) months

Source: patent publication EP4810038A1, “METHOD FOR TREATING ALK-POSITIVE OR ROS1-POSITIVE NON-SMALL CELL LUNG CANCER” (Shenzhen TargetRx Co., Ltd., priority 2023, dated 2025)
